Measurements as given in patent US20230172205A1 (priority 2020, published 2023).

Experiments:
[1] = test system: Phakopsora pachyrhizi, strain with amino acid substitution F129L in the mitochondrial cytochrome b protein; assay: Protective control of soybean rust on soybeans (PHAKPA P6); type: in vivo
[2] = test system: Phakopsora pachyrhizi, strain with amino acid substitution F129L in the mitochondrial cytochrome b protein; assay: Protective control of soybean rust on soybeans (PHAKPA P2); type: in vivo; conditions: for PHAKPA (F129L) Disease level (%), P2 at 16 ppm: Table C4, untreated >90
[3] = test system: Alternaria solani, Qo inhibitor-resistant isolate containing F129L in the mitochondrial cytochrome b protein; assay: Micro titer plate test, activity against Alternaria solani causing early blight (ALTESO), F129L; type: cell-based; conditions: Table C11a; 0.016 ppm
[4] = test system: Pyricularia oryzae; assay: microbe, parasite or virus in culture; type: cell-based; conditions: 0.016 ppm
[5] = Table 1, protective P6, 4 ppm, F129L strain
[6] = Table 1, protective P6, 16 ppm, F129L strain
[7] = Table 1, protective P2, 4 ppm, F129L strain
[8] = Table 1, protective P2, 16 ppm, F129L strain
[9] = Table C4, 16 ppm, untreated >85
[10] = protective P6, 4 ppm, soybean rust F129L strain
[11] = protective P6, 16 ppm, soybean rust F129L strain
[12] = protective P2, 4 ppm, soybean rust F129L strain
[13] = protective P2, 16 ppm, soybean rust F129L strain
[14] = Table C2, protective, inoculation six days after spraying, 4 ppm, % diseased leaf area on soybean, untreated 99

CO/C=C(/C(=O)OC)c1cccc(C)c1CO/N=C(\C)c1ccc(Cl)c(F)c1OC(F)(F)F [compound 452]
% PHAKPA (F129L) Disease level, P6 at 4 ppm [1, 5]: 70%
% PHAKPA (F129L) Disease level, P6 at 16 ppm [1, 6]: 14%
% PHAKPA (F129L) Disease level, P2 at 4 ppm [2, 7]: 60%
% PHAKPA (F129L) Disease level, P2 at 16 ppm [2, 8]: 6%

CNC(=O)/C(=N/OC)c1cccc(C)c1CO/N=C(\C)c1ccc(OC)cc1OC(F)(F)F [compound 337]
% PHAKPA (F129L) Disease level, P6 at 4 ppm [1, 5]: 13%
% PHAKPA (F129L) Disease level, P6 at 16 ppm [1, 6]: 1%
% PHAKPA (F129L) Disease level, P2 at 4 ppm [2, 7]: 9%
% PHAKPA (F129L) Disease level, P2 at 16 ppm [2, 8]: 0%

CNC(=O)/C(=N/OC)c1cccc(C)c1CO/N=C(\C)c1ccc(Cl)c(F)c1OC(F)(F)F [compound 449]
% PHAKPA (F129L) Disease level, P6 at 4 ppm [1, 5]: 57%
% PHAKPA (F129L) Disease level, P6 at 16 ppm [1, 6]: 9%
% PHAKPA (F129L) Disease level, P2 at 4 ppm [2, 7]: 33%
% PHAKPA (F129L) Disease level, P2 at 16 ppm [2, 8]: 10%

CNC(=O)/C(=N/OC)c1cccc(OC)c1CO/N=C(\C)c1cccc(C(F)(F)F)c1 [compound 461]
% PHAKPA (F129L) Disease level, P6 at 4 ppm [1, 5]: 52%
% PHAKPA (F129L) Disease level, P6 at 16 ppm [1, 6]: 6%
% PHAKPA (F129L) Disease level, P2 at 4 ppm [2, 7]: 26%
% PHAKPA (F129L) Disease level, P2 at 16 ppm [2, 8]: 2%

CNC(=O)/C(=N/OC)c1cccc(C)c1CO/N=C(\C)c1c(F)cc(Br)cc1OC(F)(F)F [compound 355]
% PHAKPA (F129L) Disease level, P6 at 4 ppm [1, 5]: 48%
% PHAKPA (F129L) Disease level, P6 at 16 ppm [1, 6]: 4%
% PHAKPA (F129L) Disease level, P2 at 4 ppm [2, 7]: 34%
% PHAKPA (F129L) Disease level, P2 at 16 ppm [2, 8]: 7%

CO/C=C(/C(=O)OC)c1cccc(C)c1CO/N=C(\C)c1ccc(OC(F)(F)F)cc1Cl [compound 463]
% PHAKPA (F129L) Disease level, P6 at 4 ppm [1, 5]: 3%
% PHAKPA (F129L) Disease level, P6 at 16 ppm [1, 6]: 0%
% PHAKPA (F129L) Disease level, P2 at 4 ppm [2, 7]: 6%
% PHAKPA (F129L) Disease level, P2 at 16 ppm [2, 8]: 0%

CO/C=C(/C(=O)OC)c1cccc(C)c1CO/N=C(\C)c1ccccc1C(F)(F)F [Ex. 244]
% PHAKPA (F129L) Disease level, P6 at 4 ppm [1, 5]: 15%
% PHAKPA (F129L) Disease level, P6 at 16 ppm [1, 6]: 2%
PHAKPA (F129L) Disease level (%), P6 at 16 ppm [1, 9]: 2%
% PHAKPA (F129L) Disease level, P2 at 4 ppm [2, 7]: 14%
% PHAKPA (F129L) Disease level, P2 at 16 ppm [2, 8]: 0%
PHAKPA (F129L) Disease level (%), P2 at 16 ppm ([2]; 16 ppm): 0%

CO/C=C(/C(=O)OC)c1cccc(C)c1CO/N=C(\C)c1ccccc1OC(F)(F)F [compound 462]
% PHAKPA (F129L) Disease level, P6 at 4 ppm [1, 5]: 55%
% PHAKPA (F129L) Disease level, P6 at 16 ppm [1, 6]: 10%
% PHAKPA (F129L) Disease level, P2 at 4 ppm [2, 7]: 37%
% PHAKPA (F129L) Disease level, P2 at 16 ppm [2, 8]: 6%

CNC(=O)/C(=N/OC)c1cccc(C)c1CO/N=C(\C)c1cc(F)ccc1F [Ex. 131]
PHAKPA (F129L) Disease level (%), P6 at 16 ppm [1, 9]: 0%
% PHAKPA (F129L) Disease level, P6 at 4 ppm [1, 10]: 2%
% PHAKPA (F129L) Disease level, P6 at 16 ppm [1, 11]: 0%
PHAKPA (F129L) Disease level (%), P2 at 16 ppm ([2]; 16 ppm): 0%
% PHAKPA (F129L) Disease level, P2 at 4 ppm [2, 12]: 0%
% PHAKPA (F129L) Disease level, P2 at 16 ppm [2, 13]: 0%

CNC(=O)/C(=N/OC)c1cccc(C)c1CO/N=C(\C)c1cccc(C(F)(F)F)c1 [Ex. 8]
PHAKPA (F129L) Disease level (%) P6 at 4 ppm ([1]; P6 at 4 ppm, untreated 75%): 1%
PHAKPA (F129L) Disease level (%) P6 at 4 ppm [1, 14]: 13%
Fungal growth (%) ALTESO F129L [3]: 52%
Fungal growth (%) PYRIOR ([4]; Table C11a): 13%

CO/N=C(/C(=O)OC)c1cccc(C)c1CO/N=C(\C)c1cccc(C)c1 [Ex. 76]
PHAKPA (F129L) Disease level (%), P6 at 16 ppm ([1]; P6 at 16 ppm, untreated 75%): 4%
PHAKPA (F129L) Disease level (%), P6 at 16 ppm [1, 9]: 0%

CNC(=O)/C(=N/OC)c1cccc(C)c1CO/N=C(\C)c1ccc(-c2ccc(F)cc2)cc1C(F)(F)F [compound 426]
% PHAKPA (F129L) Disease level, P6 at 4 ppm [1, 5]: 27%
% PHAKPA (F129L) Disease level, P6 at 16 ppm [1, 6]: 10%
% PHAKPA (F129L) Disease level, P2 at 4 ppm [2, 7]: 7%
% PHAKPA (F129L) Disease level, P2 at 16 ppm [2, 8]: 1%

CNC(=O)/C(=N/OC)c1ccccc1CO/N=C(\C)c1cc(F)ccc1F [reference compound]
PHAKPA (F129L) Disease level (%), P6 at 16 ppm [1, 9]: 22%
PHAKPA (F129L) Disease level (%), P2 at 16 ppm ([2]; 16 ppm): 1%

CO/C=C(/C(=O)OC)c1cccc(C)c1CO/N=C(\C)c1ccc(OC)cc1C(F)(F)F [compound 464]
% PHAKPA (F129L) Disease level, P6 at 4 ppm [1, 5]: 8%
% PHAKPA (F129L) Disease level, P6 at 16 ppm [1, 6]: 0%
% PHAKPA (F129L) Disease level, P2 at 4 ppm [2, 7]: 1%
% PHAKPA (F129L) Disease level, P2 at 16 ppm [2, 8]: 0%

CO/N=C(/C(=O)OC)c1cccc(C)c1CO/N=C(\C)c1ccc(-c2ccc(F)cc2)cc1C(F)(F)F [compound 425]
% PHAKPA (F129L) Disease level, P6 at 4 ppm [1, 5]: 53%
% PHAKPA (F129L) Disease level, P6 at 16 ppm [1, 6]: 40%
% PHAKPA (F129L) Disease level, P2 at 4 ppm [2, 7]: 27%
% PHAKPA (F129L) Disease level, P2 at 16 ppm [2, 8]: 28%

CNC(=O)/C(=N/OC)c1cccc(C)c1CO/N=C(\C)c1ccc(-c2ccccc2)cc1C(F)(F)F [compound 413]
% PHAKPA (F129L) Disease level, P6 at 4 ppm [1, 5]: 33%
% PHAKPA (F129L) Disease level, P6 at 16 ppm [1, 6]: 15%
% PHAKPA (F129L) Disease level, P2 at 4 ppm [2, 7]: 40%
% PHAKPA (F129L) Disease level, P2 at 16 ppm [2, 8]: 15%

CO/N=C(/C(=O)OC)c1cccc(C)c1CO/N=C(\C)c1ccc(-c2ccccc2)cc1C(F)(F)F [compound 414]
% PHAKPA (F129L) Disease level, P6 at 4 ppm [1, 5]: 53%
% PHAKPA (F129L) Disease level, P6 at 16 ppm [1, 6]: 15%
% PHAKPA (F129L) Disease level, P2 at 4 ppm [2, 7]: 53%
% PHAKPA (F129L) Disease level, P2 at 16 ppm [2, 8]: 9%

CO/N=C(/C(=O)OC)c1cccc(C)c1CO/N=C(\C)c1cccc(OC(F)(F)F)c1 [drawing 939, reference compound]
Fungal growth (%) PYRIOR ([4]; Table C8a): 100%

CO/C=C(/C(=O)OC)c1cccc(C)c1CO/N=C(\C)c1cccc(C(F)(F)F)c1 [Ex. 231]
% PHAKPA (F129L) Disease level, P6 at 4 ppm [1, 5]: 2%
% PHAKPA (F129L) Disease level, P6 at 16 ppm [1, 6]: 0%
PHAKPA (F129L) Disease level (%) P6 at 4 ppm [1, 14]: 2%
% PHAKPA (F129L) Disease level, P2 at 4 ppm [2, 7]: 0%
% PHAKPA (F129L) Disease level, P2 at 16 ppm [2, 8]: 0%
PHAKPA (F129L) Disease level (%) P2 at 4 ppm ([2]; Table C2, protective, inoculation 2 days after spraying, 4 ppm, % diseased leaf area on soybean, untreated 100): 0%

CO/N=C(/C(=O)OC)c1cccc(C)c1CO/N=C(\C)c1cccc(C(F)(F)F)c1 [Ex. 9]
PHAKPA (F129L) Disease level (%), P6 at 16 ppm ([1]; P6 at 16 ppm, untreated 75%): 1%
PHAKPA (F129L) Disease level (%), P6 at 16 ppm ([1]; Table C1, protective, inoculation six days after spraying, 16 ppm, % diseased leaf area on soybean): 4%
PHAKPA (F129L) Disease level (%) P2 at 4 ppm ([2]; Table C1, protective, inoculation 2 days after spraying, 4 ppm, % diseased leaf area on soybean): 35%
PHAKPA (F129L) Disease level (%) P2 at 4 ppm ([2]; Table C7b, 4 ppm, untreated 92): 6%
Fungal growth (%) PYRIOR ([4]; Table C9): 38%

COC=C(C(=O)OC)c1cccc(C)c1CON=C(C)c1cc(F)c(F)cc1CC(F)(F)F [compound 405]
% PHAKPA (F129L) Disease level, P6 at 4 ppm [1, 5]: 70%
% PHAKPA (F129L) Disease level, P6 at 16 ppm [1, 6]: 27%
% PHAKPA (F129L) Disease level, P2 at 4 ppm [2, 7]: 97%
% PHAKPA (F129L) Disease level, P2 at 16 ppm [2, 8]: 27%

CO/N=C(/C(=O)OC)c1cccc(C)c1CO/N=C(\C)c1c(F)ccc(C(F)(F)F)c1F [compound 156]
% PHAKPA (F129L) Disease level, P6 at 4 ppm [1, 10]: 47%
% PHAKPA (F129L) Disease level, P6 at 16 ppm [1, 11]: 3%
% PHAKPA (F129L) Disease level, P2 at 4 ppm [2, 12]: 27%
% PHAKPA (F129L) Disease level, P2 at 16 ppm [2, 13]: 0%

CO/N=C(/C(=O)OC)c1cccc(C)c1CO/N=C(\C)c1cccc(OC(F)(F)F)c1 [Ex. 28]
PHAKPA (F129L) Disease level (%), P6 at 16 ppm [1, 9]: 18%
% PHAKPA (F129L) Disease level, P6 at 16 ppm [1, 11]: 0%
PHAKPA (F129L) Disease level (%), P2 at 16 ppm ([2]; 16 ppm): 30%
% PHAKPA (F129L) Disease level, P2 at 16 ppm [2, 13]: 0%

COC=C(C(=O)OC)c1cccc(C)c1CON=C(C)c1ccc(F)c(F)c1OC(F)(F)F [compound 450]
% PHAKPA (F129L) Disease level, P6 at 4 ppm [1, 5]: 4%
% PHAKPA (F129L) Disease level, P6 at 16 ppm [1, 6]: 1%
% PHAKPA (F129L) Disease level, P2 at 4 ppm [2, 7]: 3%
% PHAKPA (F129L) Disease level, P2 at 16 ppm [2, 8]: 1%

CO/N=C(/C(=O)OC)c1cccc(C)c1CO/N=C(\C)c1ccccc1F [Ex. 1, Methyl (2E)-2-[2-[[(E)-3-(2-fluorophenyl)ethylideneamino]oxymethyl]-3-methyl-phenyl]-2-methoxyimino-acetate]
PHAKPA (F129L) Disease level (%), P6 at 16 ppm [1, 9]: 47%
% PHAKPA (F129L) Disease level, P6 at 4 ppm [1, 10]: 90%
% PHAKPA (F129L) Disease level, P6 at 16 ppm [1, 11]: 56%
PHAKPA (F129L) Disease level (%), P2 at 16 ppm ([2]; 16 ppm): 28%
% PHAKPA (F129L) Disease level, P2 at 4 ppm [2, 12]: 80%
% PHAKPA (F129L) Disease level, P2 at 16 ppm [2, 13]: 27%

CON=C(C)c1ccc(C(C)=NOCc2c(C)cccc2C(=NOC)C(=O)OC)c(OC(F)(F)F)c1 [compound 418]
% PHAKPA (F129L) Disease level, P6 at 4 ppm [1, 5]: 73%
% PHAKPA (F129L) Disease level, P6 at 16 ppm [1, 6]: 57%
% PHAKPA (F129L) Disease level, P2 at 4 ppm [2, 7]: 70%
% PHAKPA (F129L) Disease level, P2 at 16 ppm [2, 8]: 33%
